From ChEMBL document CHEMBL1201862, “PubChem BioAssay data set” (2004)
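Step 1: Grow cells in 96-well plates. Step 2: Expose to compound for 48 hours at 5 concentrations. Step 3: Interpolate endpoints linearly; if unreached, use highest concentration. GI50: concentration for 50% inhibition of growth.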 Calls of active or inactive are those of the source. Cut-off read from the data, not from the text of the source: active = GI50 up to about 1.1 µM and inactive = higher.

Columns and labels:
Assay in all cases: inhibition of tumour cell growth, NCI panel, 48 h
UACC-62 = tested on: UACC-62
ACHN = tested on: ACHN
SN12C = tested on: SN12C
TK-10 = tested on: TK-10
LOX IMVI = tested on: LOX IMVI
SF-295 = tested on: SF-295
CAKI-1 = tested on: CAKI-1
M14 = tested on: M14
NCI-H460 = tested on: NCI-H460
HOP-92 = tested on: HOP-92
A498 = tested on: A498
IGROV-1 = tested on: IGROV-1
A549 = tested on: A549
U-251 = tested on: U-251
NCI/ADR-RES = tested on: NCI/ADR-RES
SF-268 = tested on: SF-268
SK-MEL-2 = tested on: SK-MEL-2
COLO 205 = tested on: COLO 205
NCI-H23 = tested on: NCI-H23
RPMI-8226 = tested on: RPMI-8226

Structure (SMILES) | GI50 (UACC-62) | GI50 (ACHN) | GI50 (SN12C) | GI50 (TK-10) | GI50 (LOX IMVI) | GI50 (SF-295) | GI50 (CAKI-1) | GI50 (M14) | GI50 (NCI-H460) | GI50 (HOP-92) | GI50 (A498) | GI50 (IGROV-1) | GI50 (A549) | GI50 (U-251) | GI50 (NCI/ADR-RES) | GI50 (SF-268) | GI50 (SK-MEL-2) | GI50 (COLO 205) | GI50 (NCI-H23) | GI50 (RPMI-8226)
Cc1c2cccc-2ccc2c1[nH]c1ccc(Br)cc12 | 13 µM (inactive) | 12.1 µM (inactive) | 12.9 µM (inactive) | 17.1 µM (inactive) | 4.44 µM (inactive) | 4.23 µM (inactive) | 11.8 µM (inactive) | 6.12 µM (inactive) | 4.56 µM (inactive) | 3.61 µM (inactive) | 21.8 µM (inactive) | 2.56 µM (inactive) | 4.2 µM (inactive) | 3.21 µM (inactive) | 9.59 µM (inactive) | 4.6 µM (inactive) | 5.62 µM (inactive) | 2.06 µM (inactive) | 6.44 µM (inactive) | 3.15 µM (inactive)
COc1ccc(/C=C2/C(=O)N(C(=O)c3ccccc3O)N=C2C)cc1OC | 0.147 µM (active) | 0.162 µM (active) | 2.42 µM (inactive) | 10.8 µM (inactive) | 0.603 µM (active) | 0.365 µM (active) | 2.46 µM (inactive) | 0.927 µM (active) | 0.34 µM (active) | 0.326 µM (active) | 0.121 µM (active) | 0.133 µM (active) | 0.33 µM (active) | 0.202 µM (active) | 0.614 µM (active) | 0.556 µM (active) | 0.605 µM (active) | 26.7 µM (inactive) | 0.248 µM (active) | 1.72 µM (inactive)
COC1=CC(=O)C=C(OC)C1=O [2,6-DIMETHOXYQUINONE] | 5.33 µM (inactive) | – | 15.6 µM (inactive) | – | 5.14 µM (inactive) | 13.3 µM (inactive) | 50.4 µM (inactive) | – | 23.7 µM (inactive) | 4.16 µM (inactive) | 2.49 µM (inactive) | 11.3 µM (inactive) | 57.1 µM (inactive) | 31.6 µM (inactive) | 5.01 µM (inactive) | 6.46 µM (inactive) | 6.55 µM (inactive) | 12.6 µM (inactive) | 7.66 µM (inactive) | 6 µM (inactive)
CCOC(=O)Oc1ccc(C(CNC(C)C)OC(=O)OCC)cc1OC(=O)OCC (stereo not given) | > 100 µM (inactive) | > 100 µM (inactive) | > 100 µM (inactive) | > 100 µM (inactive) | > 100 µM (inactive) | > 100 µM (inactive) | > 100 µM (inactive) | > 100 µM (inactive) | > 100 µM (inactive) | > 100 µM (inactive) | > 100 µM (inactive) | > 100 µM (inactive) | > 100 µM (inactive) | > 100 µM (inactive) | > 100 µM (inactive) | > 100 µM (inactive) | > 100 µM (inactive) | > 100 µM (inactive) | > 100 µM (inactive) | > 100 µM (inactive)
CC1(C)N=C(N)N=C(N)N1c1ccc(OCCCOc2ccccc2)c(Cl)c1 | 0.472 µM (active) | – | 0.202 µM (active) | – | 0.0457 µM (active) | 0.538 µM (active) | 1.77 µM (inactive) | – | 0.0457 µM (active) | 0.409 µM (active) | 1.4 µM (inactive) | < 0.0301 µM (active) | 0.0473 µM (active) | < 0.0236 µM (active) | > 100 µM (inactive) | 0.0585 µM (active) | 1.37 µM (inactive) | 0.112 µM (active) | 0.239 µM (active) | 0.547 µM (active)
CC(C)c1ccccc1SCc1cc(=O)cc(CSc2ccccc2C(C)C)o1 | 16.7 µM (inactive) | 32.6 µM (inactive) | – | 17.9 µM (inactive) | 26.8 µM (inactive) | 17.7 µM (inactive) | 18.5 µM (inactive) | 20.2 µM (inactive) | 21.1 µM (inactive) | 15.2 µM (inactive) | 20.3 µM (inactive) | 14.5 µM (inactive) | 19.7 µM (inactive) | 22 µM (inactive) | 17.7 µM (inactive) | 16.8 µM (inactive) | 17.4 µM (inactive) | 37.2 µM (inactive) | 37.6 µM (inactive) | 32.4 µM (inactive)
CN(C)CCn1c(=O)c2ccc3c4c(nn3CCN(C)C)c3cc([N+](=O)[O-])ccc3n(c1=O)c24 | 0.337 µM (active) | 0.0384 µM (active) | < 0.0207 µM (active) | 0.212 µM (active) | 0.0447 µM (active) | 0.0585 µM (active) | 0.0481 µM (active) | 0.222 µM (active) | < 0.0128 µM (active) | 0.8 µM (active) | 0.317 µM (active) | 0.0708 µM (active) | 0.0264 µM (active) | 0.0281 µM (active) | 0.0859 µM (active) | < 0.0256 µM (active) | 0.133 µM (active) | 0.0548 µM (active) | 0.105 µM (active) | 0.0194 µM (active)
C[S+](C)([O-])=Nn1c(=O)n2n(c1=O)[C@H]1CC[C@@H]2C1 | > 100 µM (inactive) | > 100 µM (inactive) | – | > 100 µM (inactive) | > 100 µM (inactive) | > 100 µM (inactive) | > 100 µM (inactive) | > 100 µM (inactive) | > 100 µM (inactive) | > 100 µM (inactive) | > 100 µM (inactive) | > 100 µM (inactive) | > 100 µM (inactive) | > 100 µM (inactive) | > 100 µM (inactive) | > 100 µM (inactive) | > 100 µM (inactive) | > 100 µM (inactive) | > 100 µM (inactive) | > 100 µM (inactive)
C=CCn1c(=O)c(C)cn(COCCO)c1=O | – | > 100 µM (inactive) | > 100 µM (inactive) | > 100 µM (inactive) | > 100 µM (inactive) | – | > 100 µM (inactive) | > 100 µM (inactive) | > 100 µM (inactive) | > 100 µM (inactive) | > 10 µM (inactive) | > 100 µM (inactive) | > 100 µM (inactive) | > 100 µM (inactive) | > 100 µM (inactive) | > 100 µM (inactive) | > 100 µM (inactive) | > 100 µM (inactive) | > 100 µM (inactive) | > 100 µM (inactive)
COc1ccc2nc3ccc(OC)cc3c([S+]([O-])CCCl)c2c1 (stereo not given) | 15.8 µM (inactive) | 2.18 µM (inactive) | 1.94 µM (inactive) | 3.81 µM (inactive) | 2.4 µM (inactive) | 22.2 µM (inactive) | 2.62 µM (inactive) | 3.52 µM (inactive) | 26.4 µM (inactive) | 2.49 µM (inactive) | 16.8 µM (inactive) | 2.48 µM (inactive) | 20.9 µM (inactive) | 14.5 µM (inactive) | 15.2 µM (inactive) | 6.76 µM (inactive) | 17.7 µM (inactive) | 1.77 µM (inactive) | 4.26 µM (inactive) | 2.11 µM (inactive)
Clc1ccc(Cl)c(Nc2ccnc(SCc3ccccc3)n2)c1 | > 100 µM (inactive) | > 100 µM (inactive) | > 100 µM (inactive) | > 100 µM (inactive) | 46.6 µM (inactive) | > 100 µM (inactive) | > 100 µM (inactive) | 70 µM (inactive) | 54.8 µM (inactive) | > 100 µM (inactive) | > 100 µM (inactive) | > 100 µM (inactive) | > 100 µM (inactive) | > 100 µM (inactive) | > 100 µM (inactive) | > 100 µM (inactive) | > 100 µM (inactive) | > 100 µM (inactive) | > 100 µM (inactive) | 99.8 µM (inactive)
COc1ccc(C(=O)/C(Br)=C/C(=O)O)cc1 | 7.91 µM (inactive) | 55 µM (inactive) | 37.8 µM (inactive) | 51.3 µM (inactive) | 20.5 µM (inactive) | 37.9 µM (inactive) | 39.3 µM (inactive) | 26.2 µM (inactive) | 23.2 µM (inactive) | 28.4 µM (inactive) | 25.1 µM (inactive) | – | 40.2 µM (inactive) | 15.6 µM (inactive) | 21.3 µM (inactive) | 31.6 µM (inactive) | 9.48 µM (inactive) | 18.7 µM (inactive) | 26.8 µM (inactive) | 11.5 µM (inactive)
COc1cc(C2c3cc4c(cc3[C@@H](Nc3cnc5ccccc5c3)C3COC(=O)[C@H]23)OCO4)cc(OC)c1O (stereo not given in full) | 0.301 µM (active) | – | 0.338 µM (active) | – | 0.37 µM (active) | 0.148 µM (active) | 0.129 µM (active) | – | < 0.01 µM (active) | 0.381 µM (active) | 0.22 µM (active) | 1.39 µM (inactive) | < 0.01 µM (active) | 0.238 µM (active) | 1.51 µM (inactive) | 0.327 µM (active) | 1.76 µM (inactive) | 1.28 µM (inactive) | 0.311 µM (active) | 0.159 µM (active)
C=C1C(=O)OC2C1CC1OC2C(C)CCC/C(C)=C\CCC1(C)O (stereo not given) | 9.04 µM (inactive) | – | 19.5 µM (inactive) | – | 6.55 µM (inactive) | 37.5 µM (inactive) | 18.6 µM (inactive) | – | 20.1 µM (inactive) | 10.7 µM (inactive) | 19.9 µM (inactive) | 13.9 µM (inactive) | 29.7 µM (inactive) | 41.3 µM (inactive) | 14.4 µM (inactive) | 13 µM (inactive) | 10.8 µM (inactive) | 15.8 µM (inactive) | 9.25 µM (inactive) | 7.6 µM (inactive)
C[C@]12CC[C@H](O)C=C1CC[C@@H]1[C@@H]2CC[C@]2(C)C(c3ccc(=O)oc3)CC[C@]12O (stereo not given in full) | 0.0154 µM (active) | – | 0.0125 µM (active) | – | 0.0125 µM (active) | 0.0134 µM (active) | 0.0151 µM (active) | – | 0.0132 µM (active) | 0.014 µM (active) | 0.0125 µM (active) | 0.0141 µM (active) | 0.0125 µM (active) | 0.0153 µM (active) | 0.0328 µM (active) | 0.0125 µM (active) | 0.0176 µM (active) | 0.033 µM (active) | 0.0125 µM (active) | 0.0125 µM (active)
